Source: patent US9695155B2, “Herbicidal substituted pyrimidinyloxy benzene compounds” (E. I. DU PONT DE NEMOURS AND COMPANY, priority 2013, dated 2017)

Experiments:
[1] = system: giant foxtail; test: Test A postemergence; type: in vivo, Setaria faberii; conditions: 0 to 100 scale where 0 is no effect and 100 is complete control; for Foxtail, Giant plant response rating: 125 g ai/ha; for Plant response rating, Foxtail, Giant: 500 g ai/ha
Method in brief: (§1)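 Pre- and postemergence greenhouse screen. Soil: loam + sand. Spray carrier: solvent mixture, non-phytotoxic, with surfactant. Post timing at 1–2 leaves, height 2–10 cm. Readout: visual injury on a 0–100 scale roughly 10 days after application, untreated plants as reference.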

[2] = system: barnyardgrass; test: Test A preemergence; type: in vivo, Echinochloa crus-galli; conditions: for Barnyardgrass plant response rating (0 to 100 scale, 0 is no effect, 100 is complete control): 125 g ai/ha; for Barnyardgrass plant response rating: 500 g ai/ha, 0 to 100 scale where 0 is no effect and 100 is complete control
Method in brief: as §1

[3] = system: corn; test: Test A postemergence; type: in vivo, Zea mays; conditions: 0 to 100 scale where 0 is no effect and 100 is complete control; for Corn plant response rating: 125 g ai/ha; for Plant response rating, Corn: 500 g ai/ha
Method in brief: as §1

[4] = system: wheat; test: Test A preemergence; type: in vivo, Triticum aestivum; conditions: for Wheat plant response rating (0 to 100 scale): 125 g ai/ha; for Wheat plant response rating: 500 g ai/ha, 0 to 100 scale where 0 is no effect and 100 is complete control
Method in brief: as §1

[5] = system: corn; test: Test A preemergence; type: in vivo, Zea mays; conditions: for Corn plant response rating (0 to 100 scale): 125 g ai/ha; for Corn plant response rating: 500 g ai/ha, 0 to 100 scale where 0 is no effect and 100 is complete control
Method in brief: as §1

[6] = system: kochia; test: Test C postemergence; type: in vivo, Kochia scoparia; conditions: for Plant response rating (0 to 100), Kochia: 16 g ai/ha, 0 is no effect, 100 is complete control; for Kochia plant response rating: 31 g ai/ha; for Kochia plant response rating / Plant response rating, Kochia: scale 0 to 100 (0 no effect, 100 complete control)
Method in brief: (§2)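 Seeds were sown in loam–sand blend and sprayed preemergence, while plants at 1- to 4-leaf stage (2–18 cm) in peat-based medium received postemergence sprays; test chemicals were formulated in a non-phytotoxic solvent with surfactant. After 13–15 days in a greenhouse, injury was rated visually against controls, 0 (no effect) to 100 (complete control).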

[7] = system: pigweed; test: Test C postemergence; type: in vivo, Amaranthus retroflexus; conditions: for Plant response rating (0 to 100), Pigweed: 16 g ai/ha, 0 is no effect, 100 is complete control; for Pigweed plant response rating: 31 g ai/ha; for Pigweed plant response rating / Plant response rating, Pigweed: scale 0 to 100 (0 no effect, 100 complete control)
Method in brief: as §2

[8] = system: barnyardgrass; test: Test C postemergence; type: in vivo, Echinochloa crus-galli; conditions: for Plant response rating (0 to 100), Barnyardgrass: 16 g ai/ha, 0 is no effect, 100 is complete control; for Barnyardgrass plant response rating: 31 g ai/ha, 13 to 15 days; for Barnyardgrass plant response rating / Plant response rating, Barnyardgrass: scale 0 to 100 (0 no effect, 100 complete control)
Method in brief: as §2

[9] = system: Heteranthera limosa; test: Test B flooded paddy test; type: in vivo; conditions: Flood, 250 g ai/ha; 0 to 100 scale where 0 is no effect and 100 is complete control
Method in brief: (§3)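 Plants at 2-leaf stage; pots flooded to 3 cm above soil and compound applied directly into paddy water, depth held throughout. After 13 to 15 days in greenhouse, visual rating versus controls on 0 (no effect) to 100 (complete control) scale.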

[10] = system: pigweed; test: Test A preemergence; type: in vivo, Amaranthus retroflexus; conditions: for Pigweed plant response rating (0 to 100 scale): 125 g ai/ha; for Pigweed plant response rating: 500 g ai/ha, 0 to 100 scale where 0 is no effect and 100 is complete control
Method in brief: as §1

[11] = system: sedge, umbrella; test: Test B flooded paddy test; type: in vivo, Cyperus difformis; conditions: Flood, 250 g ai/ha; 0 to 100 scale where 0 is no effect and 100 is complete control
Method in brief: as §3

[12] = system: barnyardgrass; test: Test A postemergence; type: in vivo, Echinochloa crus-galli; conditions: 0 to 100 scale where 0 is no effect and 100 is complete control; for Barnyardgrass plant response rating: 125 g ai/ha; for Plant response rating, Barnyardgrass: 500 g ai/ha
Method in brief: as §1

[13] = system: galium; test: Test C postemergence; type: in vivo, Galium aparine; conditions: for Plant response rating (0 to 100), Galium: 16 g ai/ha, 0 is no effect, 100 is complete control; for Galium plant response rating: 31 g ai/ha; for Galium plant response rating / Plant response rating, Galium: scale 0 to 100 (0 no effect, 100 complete control)
Method in brief: as §2

[14] = system: velvetleaf; test: Test C postemergence; type: in vivo, Abutilon theophrasti; conditions: for Plant response rating (0 to 100), Velvetleaf: 16 g ai/ha, 0 is no effect, 100 is complete control; for Velvetleaf plant response rating: 31 g ai/ha; for Velvetleaf plant response rating / Plant response rating, Velvetleaf: scale 0 to 100 (0 no effect, 100 complete control)
Method in brief: as §2

[15] = system: wheat; test: Test A postemergence; type: in vivo, Triticum aestivum; conditions: 0 to 100 scale where 0 is no effect and 100 is complete control; for Wheat plant response rating: 125 g ai/ha; for Plant response rating, Wheat: 500 g ai/ha
Method in brief: as §1

[16] = system: rice; test: Test B flooded paddy test; type: in vivo, Oryza sativa; conditions: Flood, 250 g ai/ha; 0 to 100 scale where 0 is no effect and 100 is complete control
Method in brief: as §3

[17] = system: pigweed; test: Test A postemergence; type: in vivo, Amaranthus retroflexus; conditions: 0 to 100 scale where 0 is no effect and 100 is complete control; for Pigweed plant response rating: 125 g ai/ha; for Plant response rating, Pigweed: 500 g ai/ha
Method in brief: as §1

[18] = postemergence, visual rating, 13 to 15 days
[19] = 125 g ai/ha, postemergence, visual rating
[20] = Postemergence, 62 g ai/ha, 13 to 15 days

## Clc1cnc(Oc2cccc(Cl)c2-n2cc(Cl)cn2)nc1 [Compound 220]
[1]
  Foxtail, Giant plant response rating: 80
  Plant response rating, Foxtail, Giant: 90
[2]
  Barnyardgrass plant response rating (0 to 100 scale, 0 is no effect, 100 is complete control): 60
  Barnyardgrass plant response rating: 100
[3]
  Corn plant response rating: 40
  Plant response rating, Corn: 70
[4]
  Wheat plant response rating (0 to 100 scale): 0
  Wheat plant response rating: 20
[5]
  Corn plant response rating (0 to 100 scale): 0
  Corn plant response rating: 10
[6]; postemergence
  Plant response rating (0 to 100), Kochia: 90
[6]; [18]
  Kochia plant response rating: 90
[6]; [19]
  Plant response rating, Kochia: 95
[6]; [20]
  Plant response rating, Kochia: 95
[7]; postemergence
  Plant response rating (0 to 100), Pigweed: 65
[7]; [18]
  Pigweed plant response rating: 75
[7]; [19]
  Plant response rating, Pigweed: 90
[7]; [20]
  Plant response rating, Pigweed: 85
[8]; postemergence
  Plant response rating (0 to 100), Barnyardgrass: 5
[8]; postemergence, visual rating
  Barnyardgrass plant response rating: 10
[8]; [19]
  Plant response rating, Barnyardgrass: 15
[8]; Postemergence, 62 g ai/ha
  Plant response rating, Barnyardgrass: 10
[9]
  Plant response rating, Ducksalad: 100
[10]
  Pigweed plant response rating (0 to 100 scale): 100
  Pigweed plant response rating: 100
[11]
  Plant response rating, Sedge, Umbrella: 90
[12]
  Barnyardgrass plant response rating: 90
  Plant response rating, Barnyardgrass: 100
[13]; postemergence
  Plant response rating (0 to 100), Galium: 50
[13]; [18]
  Galium plant response rating: 70
[13]; [19]
  Plant response rating, Galium: 95
[13]; [20]
  Plant response rating, Galium: 80
[14]; postemergence
  Plant response rating (0 to 100), Velvetleaf: 30
[14]; [18]
  Velvetleaf plant response rating: 50
[14]; [19]
  Plant response rating, Velvetleaf: 60
[14]; [20]
  Plant response rating, Velvetleaf: 65
[15]
  Wheat plant response rating: 10
  Plant response rating, Wheat: 60
[16]
  Plant response rating, Rice: 0
[17]
  Pigweed plant response rating: 100
  Plant response rating, Pigweed: 100

## Clc1cnc(Oc2cccc(Br)c2-n2cc(Cl)cn2)nc1 [Compound 221]
[1]
  Foxtail, Giant plant response rating: 50
  Plant response rating, Foxtail, Giant: 90
[2]
  Barnyardgrass plant response rating (0 to 100 scale, 0 is no effect, 100 is complete control): 10
  Barnyardgrass plant response rating: 90
[3]
  Corn plant response rating: 10
  Plant response rating, Corn: 50
[4]
  Wheat plant response rating (0 to 100 scale): 0
  Wheat plant response rating: 10
[5]
  Corn plant response rating (0 to 100 scale): 0
  Corn plant response rating: 0
[6]; postemergence
  Plant response rating (0 to 100), Kochia: 90
[6]; [18]
  Kochia plant response rating: 80
[6]; [19]
  Plant response rating, Kochia: 95
[6]; [20]
  Plant response rating, Kochia: 95
[7]; postemergence
  Plant response rating (0 to 100), Pigweed: 60
[7]; [18]
  Pigweed plant response rating: 75
[7]; [19]
  Plant response rating, Pigweed: 85
[7]; [20]
  Plant response rating, Pigweed: 50
[8]; postemergence
  Plant response rating (0 to 100), Barnyardgrass: 5
[8]; postemergence, visual rating
  Barnyardgrass plant response rating: 5
[8]; [19]
  Plant response rating, Barnyardgrass: 10
[8]; Postemergence, 62 g ai/ha
  Plant response rating, Barnyardgrass: 5
[9]
  Plant response rating, Ducksalad: 0
[10]
  Pigweed plant response rating (0 to 100 scale): 100
  Pigweed plant response rating: 100
[11]
  Plant response rating, Sedge, Umbrella: 0
[12]
  Barnyardgrass plant response rating: 50
  Plant response rating, Barnyardgrass: 100
[13]; postemergence
  Plant response rating (0 to 100), Galium: 60
[13]; [18]
  Galium plant response rating: 55
[13]; [19]
  Plant response rating, Galium: 90
[13]; [20]
  Plant response rating, Galium: 55
[14]; postemergence
  Plant response rating (0 to 100), Velvetleaf: 35
[14]; [18]
  Velvetleaf plant response rating: 35
[14]; [19]
  Plant response rating, Velvetleaf: 75
[14]; [20]
  Plant response rating, Velvetleaf: 45
[15]
  Wheat plant response rating: 0
  Plant response rating, Wheat: 30
[16]
  Plant response rating, Rice: 0
[17]
  Pigweed plant response rating: 100
  Plant response rating, Pigweed: 100
